Test systems include UACC-257 melanoma; CAKI-1 renal; TK-10 renal; NCI-H226 lung; HS 578T breast; MDA-MB-435; MALME-3M melanoma; MCF7 breast; NCI-H460 lung; A498 renal.
Holding throughout (assay): NCI anticancer screen, dose series, 48 h

Structures are written as SMILES. Several values for one entry are separate records, joined by “and”; a condition that tells them apart may be missing. Identical values can stand only once.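 Briefly, cells in 96-well plates were exposed to five compound concentrations for 48 h, and endpoints were estimated by linear interpolation. Here, GI50 denotes the concentration required for 50% inhibition of growth. TGI is the concentration that stops growth completely.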

The text below walks through data of PubChem BioAssay (NCI).

As for `NC(N)=NN=c1c(=O)c2ccccc2c1=O`, the GI50 in the assay with UACC-257 melanoma is 15.1 µM; in the assay on CAKI-1 renal, 18.9 µM; in the assay with TK-10 renal, 22.6 µM; in the assay on NCI-H226 lung, 14.8 µM; in the assay with HS 578T breast, 10.1 µM; in the assay with MDA-MB-435 it was 1.95 µM. Moreover, the figures for the GI50 in the assay with MALME-3M melanoma, with MCF7 breast and in the assay with NCI-H460 lung were 1.66 µM, 8.89 µM and 2.92 µM, respectively. Besides, the TGI in the assay on UACC-257 melanoma was 28.9 µM; with CAKI-1 renal, 41.2 µM; in the assay with TK-10 renal it was 37.4 µM; in the assay with NCI-H226 lung, 28.1 µM; in the assay on HS 578T breast it was > 100 µM; with MDA-MB-435, 3.71 µM. The TGI in the assay on MALME-3M melanoma worked out at 3.06 µM; in the assay on MCF7 breast, 27.9 µM; in the assay with NCI-H460 lung, 7.14 µM.

Take `Cc1ccc2c(c1)[n+](=O)c(C(=O)c1cccs1)c(C(F)(F)F)n2[O-]`: the GI50 with UACC-257 melanoma is 2.28 µM and 0.237 µM; in the assay on CAKI-1 renal, 0.856 µM and 0.395 µM; in the assay on TK-10 renal, 0.718 µM; in the assay with NCI-H226 lung it was 2.21 µM; in the assay with MDA-MB-435 it was 1.37 µM and 1.22 µM; in the assay on MCF7 breast it was 0.875 µM and 0.456 µM. In addition, the GI50 in the assay with NCI-H460 lung is 0.616 µM and 0.359 µM. The TGI with CAKI-1 renal was 3.43 µM and 4.07 µM; in the assay with TK-10 renal, 3.22 µM; in the assay with NCI-H226 lung, 13.2 µM; in the assay with MDA-MB-435, 5.41 µM and 9.08 µM; in the assay on MCF7 breast it was 3.79 µM and 21.5 µM.

On to `Nc1n[n+]([O-])c2cc([N+](=O)[O-])ccc2[n+]1[O-]`, for which the TGI in the assay with A498 renal stood at 36.6 µM; in the assay with UACC-257 melanoma, 27.1 µM; with CAKI-1 renal, 20.6 µM; with TK-10 renal, 86.1 µM; with NCI-H226 lung it was 30.7 µM; in the assay with HS 578T breast it was 44 µM. Besides, the figures for the TGI with MDA-MB-435, in the assay with MCF7 breast and with NCI-H460 lung were 3.26 µM, 11.7 µM and 16.1 µM, respectively.

Take `CC(=O)N[C@H](C)[C@@H](O)[C@@H](C)[C@@H]1OC(=O)/C=C/C=C(C)\C=C\[C@]2(C)C[C@@H](NS(C)(=O)=O)C=C[C@@H]2/C=C(C)/C=C/[C@H]1C`: the GI50 in the assay on A498 renal was 0.0068 µM and 0.0121 µM; in the assay on UACC-257 melanoma it was 0.0227 µM and 0.00967 µM; in the assay on TK-10 renal, 0.045 µM and 0.276 µM; in the assay on NCI-H226 lung, 0.0156 µM and 0.00593 µM; with HS 578T breast it was 0.0158 µM and 0.0164 µM; with MDA-MB-435, 0.00268 µM and 0.00435 µM. Moreover, the GI50 is 0.0868 µM and 0.0628 µM in the assay with MALME-3M melanoma; 0.00547 µM and 0.00591 µM in the assay on MCF7 breast; 0.00812 µM and 0.0174 µM with NCI-H460 lung. The TGI in the assay on UACC-257 melanoma, in the assay on TK-10 renal, with NCI-H226 lung, with HS 578T breast, in the assay on MDA-MB-435 and with MALME-3M melanoma was > 43.5 µM each time. Further, the TGI in the assay with MCF7 breast and in the assay on NCI-H460 lung was > 43.5 µM throughout.

As to `O=C1Cc2c(-c3ccccc3)cc(-c3ccccc3)nc2-c2ccccc2N1`, the TGI in the assay on A498 renal was 59.2 µM; with UACC-257 melanoma, > 100 µM; in the assay on CAKI-1 renal, 19.9 µM; with TK-10 renal, 5.68 µM; in the assay with NCI-H226 lung, 46.9 µM; in the assay with HS 578T breast, 19 µM. In addition, the values for the TGI in the assay with MDA-MB-435, in the assay on MALME-3M melanoma and in the assay on NCI-H460 lung were > 100 µM, > 100 µM and 29.6 µM, respectively. Besides, in the assay on TK-10 renal, the GI50 was 2.48 µM.

As for `CC1(C)OB(c2ccc(N(CCOS(C)(=O)=O)CCOS(C)(=O)=O)cc2)OC1(C)C`, the GI50 in the assay on UACC-257 melanoma was 21.6 µM; in the assay with CAKI-1 renal, 1.79 µM; with TK-10 renal it was 18.9 µM; with NCI-H226 lung, 9.02 µM; in the assay on HS 578T breast it was 32.3 µM; in the assay with MDA-MB-435, 23 µM. The GI50 is 12.9 µM with MALME-3M melanoma, 17.8 µM in the assay on MCF7 breast and 12.6 µM with NCI-H460 lung. The TGI was > 60.5 µM in the assay on UACC-257 melanoma; 18.4 µM in the assay with CAKI-1 renal; 56.4 µM in the assay on TK-10 renal; 33.6 µM in the assay with NCI-H226 lung; > 87 µM with HS 578T breast; 53.4 µM in the assay with MDA-MB-435. Also, the TGI is 46.1 µM in the assay with MALME-3M melanoma, > 83.8 µM with MCF7 breast and > 100 µM with NCI-H460 lung.

Consider `Cc1nc2ccccn2c1NC(=O)NN1C(=O)CSC1c1ccc(Cl)cc1` (stereo not drawn), for which the GI50 with A498 renal, in the assay on UACC-257 melanoma, in the assay with CAKI-1 renal, with TK-10 renal, with NCI-H226 lung and in the assay with HS 578T breast was > 100 µM in each case. Moreover, the GI50 in the assay with MDA-MB-435, with MCF7 breast and in the assay with NCI-H460 lung was > 100 µM throughout. Also, the TGI with A498 renal, with UACC-257 melanoma, in the assay on CAKI-1 renal, in the assay with TK-10 renal, in the assay with NCI-H226 lung and in the assay with HS 578T breast was > 100 µM in each case. Also, the TGI in the assay with MDA-MB-435, with MCF7 breast and with NCI-H460 lung was > 100 µM in each case.

Regarding `CN(C)c1ccc(C(=S)c2ccc(N(C)C)cc2)cc1`, the GI50 in the assay on A498 renal was 3.16 µM; in the assay with UACC-257 melanoma it was 16.2 µM; in the assay on CAKI-1 renal, 6.15 µM; in the assay on TK-10 renal, 13.8 µM; in the assay on NCI-H226 lung it was 22.2 µM; with HS 578T breast it was 3.84 µM. The GI50 with MALME-3M melanoma is 5.5 µM; in the assay with MCF7 breast it was 3.92 µM; with NCI-H460 lung it was 3.97 µM. In addition, the TGI in the assay on A498 renal was 74.8 µM; in the assay with UACC-257 melanoma, > 100 µM; with CAKI-1 renal it was > 100 µM; in the assay on TK-10 renal it was > 100 µM; with NCI-H226 lung, > 100 µM; with HS 578T breast it was > 100 µM. The TGI in the assay on MALME-3M melanoma, with MCF7 breast and with NCI-H460 lung was > 100 µM throughout.

On to `CCN(C(=O)N1CCN(c2cc3c(cc2F)c(=O)c(C(=O)O)cn3C2CC2)CC1)c1nc(-c2ccccc2)cs1`, for which the GI50 is 2.83 µM in the assay on UACC-257 melanoma; 2.58 µM in the assay with CAKI-1 renal; 3.37 µM in the assay on TK-10 renal; 1.84 µM in the assay with NCI-H226 lung; 3.16 µM in the assay on HS 578T breast; 2.87 µM in the assay with MDA-MB-435. In addition, the GI50 in the assay with MALME-3M melanoma was 2.77 µM; with MCF7 breast it was 3.15 µM; with NCI-H460 lung, 3.11 µM. For the same molecule, the TGI in the assay on UACC-257 melanoma amounted to 7.61 µM; in the assay on CAKI-1 renal, 10.3 µM; in the assay with TK-10 renal it was 53.2 µM; with NCI-H226 lung, 3.74 µM; with HS 578T breast, 25.9 µM; in the assay with MDA-MB-435 it was 11.6 µM. Further, the TGI in the assay with MALME-3M melanoma was 9.06 µM; with MCF7 breast it was > 100 µM; with NCI-H460 lung it was > 100 µM.
